# PMC9845330 (Communications Biology, 2023)
# “Also recorded” adds a separate entry of the source. Non-standard residues stand in square brackets, D forms with d. Residues, ends and D or L forms follow the SMILES beside them. *: point of attachment. X1 = O=C(CCCC[C@@H]1SC[C@@H]2NC(=O)N[C@@H]21)NCCCOCCOCCOCCCN*; PEG12 = NCCOCCOCCOCCOCCOCCOCCOCCOCCOCCOCCOCCOCCC(=O)O
# Legend:
# 100% human serum = conditions: 37 °C, up to 48 h
# H1299 cells = assay: Cell binding and internalization by flow cytometry, relative (normalized) uptake of peptide-streptavidin-phycoerythrin; assay type: cell-based, human; conditions: for Bmax (best-fit): Supplementary Table 2, normalized binding; for fold decrease in affinity: C-terminal truncation versus full-length monomer
# Description: MGS4 was initially selected by phage display biopanning of a peptide library on live cells. […] As such, multivalent binding is often required. To ascertain whether multivalent binding is required for MGS4 internalization, monomeric (MGS4_V2) and tetrameric (MGS4_V1) peptides were synthesized and labeled as described (Supplementary Figure 1). After incubation of varying peptide concentrations on live cells, surface-bound peptide was removed by low pH washes, as well as trypsinization. Relative internalization was measured by flow cytometry to determine an EC50 value which represents the concentration of peptide producing half-maximal internalization. This measurement is dependent on the affinity of the peptide for its cellular target and the rate of internalization. This is a more accurate representation of the biological situation and useful in evaluating the peptides as drug delivery agents. As expected for receptor-mediated endocytosis, uptake of MGS4 is saturable with increasing concentration.
# Fig. 1 Monomeric and tetrameric MGS4 have similar binding, internalization and subcellular location. a Binding and internalization of tetrameric MGS4_V1 and monomeric MGS4_V2 on live H1299 cells in culture. Cells were incubated with the peptide conjugated to streptavidin-phycoerythrin for 1 h at 37 °C. Non-internalized peptide was removed and the cells were analyzed by flow cytometry. b H1299 cells were incubated with MGS4_V1 or MGS4_V2 conjugated to streptavidin-Alexa Fluor 555 (red) for 1 h, washed, fixed and counterstained with WGA-Alexa Fluor 488 (green, cell membrane) and DAPI (blue, nuclei) and analyzed by fluorescence microscopy. The scale bar represents 20 µm. MGS4_V1 and MGS4_V2 internalize to a similar degree and localize to a similar destination. c Truncated monomeric MGS4 peptides have similar EC50 as the parental full-length peptide. Individual measurements are shown. The mean is shown as an “X” and black error bars represent standard error for a minimum of three experimental replicates (SEM). All original binding data and nonlinear regression analysis of the data are included in the supplementary materials.
# Biotinylated peptide was conjugated to streptavidin-R-phycoerythrin or streptavidin-Alexa Fluor 647 (1:1 molar ratio) for 30 min. The open binding sites on streptavidin were quenched with RPMI 1640 and diluted to the indicated concentration. Tumor cells were grown to 90% confluency in a 12 well plate, then incubated with 500 µl peptide-dye conjugate at 37 °C. After 1 h, peptide was removed, and the cells were washed 3x with PBS (137 mM NaCl, 2.7 mM KCl, 10 mM Na2HPO4, 1.8 mM KH2PO4, pH 7.4), 2x with 0.1 M HCl-glycine pH2.2 in 0.9% NaCl, and 1x PBS rinse. Cells were removed by trypsinization. Flow cytometry was performed on a BD FACSCelesta, and data were analyzed on Flowing software. Cells were gated based on the forward and side scatter to include only viable cells and a minimum of 10,000 events were counted. A region containing <5% of the cells in the negative control was established, and relative peptide uptake by the mean fluorescence intensity of that population. For absolute peptide uptake per cell, a standard curve was generated using Quantum™ Alexa Fluor 647 microspheres (Bangs Laboratory, Fishers, IN). A representative linear regression showing the correlation of molecule equivalents soluble fluorophores (MESF) vs the mean fluorescence intensity (MFI) is shown in Supplemental Figure 6. Cells were gated based on the forward and side scatter to include only viable cells and a minimum of 10,000 events were counted. MFI was determined at 50% at peak height. Molecules internalized per cell were determined by the standard curve relating MESF to MFI and divided by the number dye molecules/MGS conjugate. An example is shown in supplemental Figure 7. GraphPad Prism® was used for non-linear regression curve fitting to calculate an EC50. […]
# Stability in human serum = assay type: in vitro ADME; conditions: 100% human serum, 48 h, 37 °C, serum proteins precipitated, analytical HPLC, MALDI TOF/TOF MS
# Description: To address if acetylation is effective in reducing serum degradation of MGS4, acetylated (MGS4_V8) and non-acetylated (MGS4_V4) peptides were dissolved in human serum and incubated for 48 h at 37 °C. The peptides were monitored by analytical HPLC, and products were verified via MALDI TOF/TOF™ MS. […] Instead, a mixture of peptide fragments is detected, none of which correspond to the mass of the starting peptide (Supplemental Table 1 and Supplemental Fig. 2). The major products are shorter fragments corresponding to the loss of the five N-terminal amino acids. Fragments related to QSFYT-PEG11, SFYT-PEG11 and FYT-PEG11 are observed.
# Supplemental Figure 1. […]
# M GS4_V4 (non-acetylated, panel a) and M GS4_V8 (acetylated, panel b ) were incubated in 100% human serum for 0 and 48-hours. Serum proteins were precipitated, and the peptide was analyzed by analytical
# HPLC. The mass of the peptide and degradation products were determined by MALDI MS and are […]
# MGS4_V8, MGS4_V9, or MGS4_V10 were conjugated with streptavidin-Alexa Fluor 650 and were incubated with the indicated cell line for 1 hour. Non-internalized peptide was rem ov ed, and the mean number of peptides internalized per cell was determined to calculate the EC50. […]
# Supplemental Figure 4 : Peptide-Streptavidin conjugates are nontoxic to cells. a. […] After 72 hours, viability was measured. […]
# [1] = H1299 cells, 1 h at 37 °C, normalized uptake, one-site specific binding fit, Average ± SEM, minimum 3 replicates
molecule,measurement,setting,value
AcFHAVPQSFYT-PEG11,not cleaved,100% human serum,only full-length peptide observed after 48 h; 93.4% of peak at 48 Hours (93.5% in starting material)
"FHAVPQSFY*** [MGS4_V5, monomeric MGS4 truncated by three C-terminal amino acids]",EC50 (nM),H1299 cells; [1],Not Detected^2
CC(C)[C@H](NC(=O)[C@H](C)NC(=O)[C@H](Cc1c[nH]cn1)NC(=O)[C@@H](N)Cc1ccccc1)C(=O)N1CCC[C@H]1C(=O)N[C@@H](CCC(N)=O)C(=O)N[C@@H](CO)C(=O)N[C@@H](Cc1ccccc1)C(=O)N[C@@H](Cc1ccc(O)cc1)C(=O)N[C@H](C(=O)N[C@@H](C)C(=O)N1CCC[C@H]1C(=O)NCCOCCOCCOCCOCCOCCOCCOCCOCCOCCOCCOCCOCCC(=O)N[C@@H](CCC(=O)NCCCOCCOCCOCCCNC(=O)CCCC[C@@H]1SC[C@@H]2NC(=O)N[C@@H]21)C(N)=O)[C@@H](C)O [MGS4_V2] (H-FHAVPQSFYTAP[PEG12]E(X1)-NH2),Bmax (best-fit),H1299 cells,1.065
CC(=O)N[C@@H](Cc1ccccc1)C(=O)N[C@@H](Cc1c[nH]cn1)C(=O)N[C@@H](C)C(=O)N[C@H](C(=O)N1CCC[C@H]1C(=O)N[C@@H](CCC(N)=O)C(=O)N[C@@H](CO)C(=O)N[C@@H](Cc1ccccc1)C(=O)N[C@@H](Cc1ccc(O)cc1)C(=O)N[C@H](C(=O)N[C@@H](C)C(=O)N1CCC[C@H]1C(=O)NCCOCCOCCOCCOCCOCCOCCOCCOCCOCCOCCOCCOCCC(=O)N[C@@H](CCC(=O)NCCCOCCOCCOCCCNC(=O)CCCC[C@@H]1SC[C@@H]2NC(=O)N[C@@H]21)C(N)=O)[C@@H](C)O)C(C)C [MGS4_V7] (Ac-FHAVPQSFYTAP[PEG12]E(X1)-NH2),Bmax (best-fit),H1299 cells,1.470
CC(C)[C@H](NC(=O)[C@H](C)NC(=O)[C@H](Cc1c[nH]cn1)NC(=O)[C@@H](N)Cc1ccccc1)C(=O)N1CCC[C@H]1C(=O)N[C@@H](CCC(N)=O)C(=O)N[C@@H](CO)C(=O)N[C@@H](Cc1ccccc1)C(=O)N[C@@H](Cc1ccc(O)cc1)C(=O)N[C@H](C(=O)NCCOCCOCCOCCOCCOCCOCCOCCOCCOCCOCCOCCOCCC(=O)N[C@@H](CCC(=O)NCCCOCCOCCOCCCNC(=O)CCCC[C@@H]1SC[C@@H]2NC(=O)N[C@@H]21)C(N)=O)[C@@H](C)O [MGS4_V4] (H-FHAVPQSFYT[PEG12]E(X1)-NH2),fold decrease in affinity,H1299 cells,3-5 fold
same,Bmax (best-fit),H1299 cells,1.402
same,peptide after incubation in human serum,Stability in human serum,none of the starting material
FHAVPQSFYT-PEG11,cleaved bond,100% human serum,"P-Q, major, 48 Hours"
same,fragment found,100% human serum,"SFYT-PEG11, 48 Hours; also recorded: FYT-PEG11, 48 Hours"
CC(C)[C@H](NC(=O)[C@H](C)NC(=O)[C@H](Cc1c[nH]cn1)NC(=O)[C@@H](N)Cc1ccccc1)C(=O)N1CCC[C@H]1C(=O)N[C@@H](CCC(N)=O)C(=O)N[C@@H](CO)C(=O)N[C@@H](Cc1ccccc1)C(=O)N[C@@H](Cc1ccc(O)cc1)C(=O)N[C@H](C(=O)N[C@@H](C)C(=O)NCCOCCOCCOCCOCCOCCOCCOCCOCCOCCOCCOCCOCCC(=O)N[C@@H](CCC(=O)NCCCOCCOCCOCCCNC(=O)CCCC[C@@H]1SC[C@@H]2NC(=O)N[C@@H]21)C(N)=O)[C@@H](C)O [MGS4_V3] (H-FHAVPQSFYTA[PEG12]E(X1)-NH2),fold decrease in affinity,H1299 cells,3-5 fold
same,Bmax (best-fit),H1299 cells,1.247
"FHAVPQSFYTAP [MGS4_V1, tetrameric full-length MGS4 peptide]",EC50,H1299 cells; [1],3.6 ± 0.49 nM
same,Bmax (best-fit),H1299 cells,1.171
